1 compound from patent publication US6784165B1, “Treatment of heart rhythm disturbances with N6-substituted-5′-(N-substituted) carboxamidoadenosines” (Aderis Pharmaceuticals, Inc., priority 1999, dated 2004) can be followed below.

This experiment deals with T1, adenosine A1 receptor (Rattus norvegicus, UniProt P25099).
T1 sequence (P25099 1-326): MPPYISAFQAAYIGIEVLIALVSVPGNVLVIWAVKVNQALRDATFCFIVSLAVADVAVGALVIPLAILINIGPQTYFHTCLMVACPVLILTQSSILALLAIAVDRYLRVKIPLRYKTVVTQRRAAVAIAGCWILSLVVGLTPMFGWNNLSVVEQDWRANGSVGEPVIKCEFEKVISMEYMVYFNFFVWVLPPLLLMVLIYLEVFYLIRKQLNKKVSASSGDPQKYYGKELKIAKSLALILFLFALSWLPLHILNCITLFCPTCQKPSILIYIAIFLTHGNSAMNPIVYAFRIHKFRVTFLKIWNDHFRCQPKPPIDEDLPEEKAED
Briefly: Negative inotropic response in electrically stimulated rat isolated left atria (isoproterenol-stimulated). Also noted: from tissue; host or cells: whole animal (conscious Sprague-Dawley rats). As to conditions: plateau negative inotropic response, 1 Hz, isoproterenol 10^−8 M. The source says:
Concentration dose-effect curve data were fitted to a sigmoid curve using Graphpad PRIZM™ software to obtain the concentration or dose of test compound that produces 50% of the maximal obtainable response, in vitro EC50 or in vivo ED50 values, for activation of the adenosine A1 receptor. Responses measured to each dose were the plateau negative inotropic response to cumulative additions of test compound in the isolated left atria and the peak bradycardia in response to bolus intravenous injections of test compound in conscious rats. Oral bioavailability was estimated from pharmacodynamic responses using the expression: (Response AUCoral/Response AUCiv)(Doseiv/Doseoral), where Response AUC is the area under the curve for test compound-induced bradycardia over time.
Male Sprague-Dawley rats weighing 200-350 grams were sacrificed and the hearts rapidly removed and placed in a warmed Krebs-Henseleit buffer solution. The left atria were dissected free from the hearts and suspended in 30 mL jacketed isolated organ baths filled with Krebs-Henseleit buffer, oxygenated with 95% O2/5% CO2 and maintained at 37° C. Tissues were connected to a force displacement transducer under a resting tension of 1 gram. Atria were stimulated electrically at 1 Hz, 1 msec duration and supramaximal voltage to produce regular contractions of tissue.
Adenosine A1 agonists were added to the baths at increasing cumulative concentrations until a maximal decrease in the force of contraction was obtained. Because adenosine A1 agonists have only a small direct negative inotropic action in rat atria, it was necessary to stimulate β-adrenergic receptors to produce positive inotropy in order to maximize the negative intropic response and thereby facilitate measurement. Under these conditions, adenosine A1 agonists acting at A1 receptors indirectly reduce the β-adrenergic mediated positive inotropy. Accordingly, the β-adrenergic agonist isoproterenol (10^−8 M) was added to the organ baths approximately 15 minutes before the addition of the adenosine A1 agonist.

With `CCNC(=O)[C@H]1O[C@@H](n2cnc3c(NC4CCCC4)ncnc32)[C@H](O)[C@@H]1O` [Compound A, ethyl N^6-cyclopentyladenosine-5′-uronamide], the midpoint of the response, the EC50, lay at 15.5 nM.
